Source: PubChem BioAssay (NCI)
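1) Cells in 96-well plates. 2) Compound, 48 h, 5 concentrations. 3) Linear interpolation between surrounding doses. 4) Unreached endpoint = highest concentration. GI50: concentration for 50% inhibition of growth. Definition used: TGI = concentration required for complete inhibition of growth.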

Legend:
Test in all cases: NCI-60 cell line screen, 48 h
SNB-75 CNS = system: SNB-75 CNS
NCI-H226 lung = system: NCI-H226 lung
OVCAR-5 ovarian = system: OVCAR-5 ovarian
SF-295 CNS = system: SF-295 CNS
RPMI-8226 leukemia = system: RPMI-8226 leukemia
HS 578T breast = system: HS 578T breast
SF-539 CNS = system: SF-539 CNS
HCT-116 colon = system: HCT-116 colon
PC-3 prostate = system: PC-3 prostate
CAKI-1 renal = system: CAKI-1 renal
UACC-62 melanoma = system: UACC-62 melanoma
NCI/ADR-RES ovarian = system: NCI/ADR-RES ovarian
UACC-257 melanoma = system: UACC-257 melanoma
CCRF-CEM leukemia = system: CCRF-CEM leukemia
MCF7 breast = system: MCF7 breast
LOX IMVI melanoma = system: LOX IMVI melanoma
MOLT-4 leukemia = system: MOLT-4 leukemia
SR leukemia = system: SR leukemia
EKVX NSCLC = system: EKVX NSCLC
786-0 renal = system: 786-0 renal
KM12 colon = system: KM12 colon
A498 renal = system: A498 renal
TK-10 renal = system: TK-10 renal
MALME-3M melanoma = system: MALME-3M melanoma
HOP-92 NSCLC = system: HOP-92 NSCLC
NCI-H522 lung = system: NCI-H522 lung
SN12C renal = system: SN12C renal
HCC-2998 colon = system: HCC-2998 colon
SK-MEL-2 melanoma = system: SK-MEL-2 melanoma

COc1cc2c3c(n(CCCNC4CCC4)c(=O)c2cc1OC)-c1cc2c(cc1C3=O)OCO2
GI50 (SNB-75 CNS): 1120 nM
TGI (SNB-75 CNS): 2640 nM
GI50 (NCI-H226 lung): 5540 nM
TGI (NCI-H226 lung): 26100 nM
GI50 (OVCAR-5 ovarian): 1890 nM
TGI (OVCAR-5 ovarian): 3440 nM
GI50 (SF-295 CNS): 274 nM
TGI (SF-295 CNS): 1740 nM
GI50 (RPMI-8226 leukemia): 492 nM
TGI (RPMI-8226 leukemia): 2180 nM
GI50 (HS 578T breast): 6320 nM
TGI (HS 578T breast): 15800 nM
GI50 (SF-539 CNS): 1210 nM
TGI (SF-539 CNS): 2560 nM
GI50 (HCT-116 colon): 1050 nM
TGI (HCT-116 colon): 2780 nM
GI50 (PC-3 prostate): 1220 nM
TGI (PC-3 prostate): 2870 nM
GI50 (CAKI-1 renal): 1110 nM
TGI (CAKI-1 renal): 2370 nM
GI50 (UACC-62 melanoma): 4200 nM
TGI (UACC-62 melanoma): 12500 nM
GI50 (NCI/ADR-RES ovarian): 1090 nM
TGI (NCI/ADR-RES ovarian): 3610 nM
GI50 (UACC-257 melanoma): 16300 nM
TGI (UACC-257 melanoma): 34200 nM
GI50 (CCRF-CEM leukemia): 75.7 nM
TGI (CCRF-CEM leukemia): 3550 nM
GI50 (MCF7 breast): 109 nM
TGI (MCF7 breast): 1870 nM
GI50 (LOX IMVI melanoma): 360 nM
TGI (LOX IMVI melanoma): 884 nM
GI50 (MOLT-4 leukemia): 26.7 nM
TGI (MOLT-4 leukemia): 1910 nM
GI50 (SR leukemia): 57.6 nM
TGI (SR leukemia): 793 nM
GI50 (EKVX NSCLC): 1960 nM
TGI (EKVX NSCLC): 4140 nM
GI50 (786-0 renal): 1540 nM
TGI (786-0 renal): 3050 nM
GI50 (KM12 colon): 2010 nM
TGI (KM12 colon): 5720 nM
GI50 (A498 renal): 14500 nM
TGI (A498 renal): 29200 nM
GI50 (TK-10 renal): 19000 nM
TGI (TK-10 renal): 33700 nM
GI50 (MALME-3M melanoma): 4340 nM
TGI (MALME-3M melanoma): 9280 nM
GI50 (HOP-92 NSCLC): 5260 nM
TGI (HOP-92 NSCLC): 13400 nM
GI50 (NCI-H522 lung): 581 nM
TGI (NCI-H522 lung): 2490 nM
GI50 (SN12C renal): 1480 nM
TGI (SN12C renal): 3190 nM
GI50 (HCC-2998 colon): 1420 nM
TGI (HCC-2998 colon): 2820 nM
GI50 (SK-MEL-2 melanoma): 18400 nM
TGI (SK-MEL-2 melanoma): 33700 nM
